“Also recorded” adds a separate entry of the source. Blank lines part the entries; values can stand above or below the compound they belong to.
How the values were obtained:
[1] = Fluorescent intensity and quantum yield in solution; assay type: physicochemical; conditions: for relative fluorescent units: 1 μM solutions
Protocol: Absorption spectra were obtained using a Perkin-Elmer (Lambda 2) UV/VIS spectrophotometer. Fluorescence spectra were obtained by using either a Perkin-Elmer 650-10S fluorescent spectrophotometer or a SPEX Fluorolog 2. Proton NMR spectra were recorded with a Bruker 300 MHz pulsed fourier transform spectrometer. The chemical shifts were determined with respect to internal standards: tetramethylsilane or 4-trimethylsilylpropanesulfonic acid.

[2] = system: A-253 human head and neck squamous carcinoma cells; experiment: MTT microculture growth inhibition assay, A-253 cells; assay type: cell-based; conditions: for IC50: cells exposed to drugs for 4 days, MTT, ± SEM of 16 or more determinations
Protocol: (§1) A-253 human head and neck squamous carcinoma cells were obtained from the American Type Culture Collection (Rockville, Md.) and were grown in McCoy's medium supplemented with 10% fetal bovine serum (Hyclone, Logan, Utah) as previously described. See, Lazo, J. S., et al., "Characteristics of Bleomycin-resistant Phenotypes of Human Cell Sublines and Circumvention of Bleomycin Resistance by Liblomycin," Cancer Res , 49: 185-190, (1989). The BLM-resistant (C-10E) cell line was derived from A-253 cells as previously described. Id., incorporated by reference herein, and was maintained in the continuous presence of 50 nM BLM. The revertant (C-10E^R) cells were obtained by growing C-10E cells in the absence of BLM for 3 months. Cell lines were maintained at 37° C. in a humidified incubator with 95% air, 5% CO2 atmosphere.
(§2) The effect of drugs on cellular proliferation was determined using the previously described MTT microculture assay. See, Twentyman, P. R., et al., "Study of Some Variables in a Tetrazolium Dye (MTT) Based Assay for Cell Growth and Chemosensitivity," Br. J Cancer, 56: 279-285, (1987). Exponentially growing cells were plated at a density of 2 to 4×10^3 cells per well in 100 μl volume into 96-well microtiter plates (Costar, Cambridge, Mass.). After 3 hours, various concentrations of drugs were added and the plates were incubated for 4 days at 37° C. under humidified 5% CO2 -95% air atmosphere. After 4 days, the medium was replaced with 100 μl of 1 mg/ml MTT in McCoy's medium, and cells were incubated with MTT solution in McCoy's medium for 3 hours at 37° C. Excess MTT was removed, the formazan generated was dissolved in 100 μl DMSO, and the absorbance at wavelength 540 nm was determined spectrophotometrically (Titertek Multiskan; Flow Labs, McLean, Va.). The drug concentrations required to inhibit cell growth by 50% (IC50) were then determined.

C-10E cells [3] = experiment: MTT microculture growth inhibition assay, BLM-resistant C-10E cells; assay type: cell-based, human; conditions: for IC50: cells exposed to drugs for 4 days, MTT, ± SEM; for resistance index C-10E: ratio of IC50 for C-10E cells compared to the IC50 for A-253 cells; for fold resistance of C-10E cells: C-10E clone relative to A-253 cells
Protocol: as §1, §2

[4] = system: form I plasmid pGEM-3Z DNA; experiment: DNA cleavage assay, agarose gel electrophoresis and densitometry; assay type: biochemical; conditions: for form I DNA remaining after 1 minute incubation: equipotent concentrations: TLM S10b 0.05 μM, FLM 0.62 μM
Protocol: The ability of various drugs to cause breakage of covalently closed circular DNA was determined using a slight modification of a previously described DNA cleavage assay. See, Lazo, J. S., et al, "Enhanced Bleomycin-induced DNA Damage and Cytotoxicity with Calmodulin Antagonists," Molec. Pharmacol., 27: 387-393, (1985). Metal-free FLM was first made by chelating the metal with dithizone using a previously described procedure. See, Roy, S. R., et al., "Chemical Synthesis of Radiolabeled Bleomycin A2 and its Binding to DNA," Cancer Res., 41: 4471-4477, (1981), incorporated by reference herein. […] The disappearance of form I DNA and the appearance of form II and form III DNA were assayed by gel electrophoresis with 1.2% agarose gels at room temperature for 15 h at 30 V in a buffer containing 40 mM Tris-acetate and 1 mM EDTA. The gel was then stained with 1 μg/ml ethidium bromide for 1 hour and the DNA visualized by UV irradiation. A negative film of the gel was recorded and scanned using an LKB 2400 GelScan XL densitometer. The effect of incubation time on cleavage of pGEM-3Z DNA by TLM S10b and FLM was also determined using equipotent amounts of TLM S10b and FLM (0.05 and 0.62 μM, respectively) by gel electrophoresis as described above.
Equipotent concentrations of TLM S10b and FLM (0.05 and 0.62 μM, respectively) were incubated with form I DNA for 1, 5, 10, 20 and 30 minutes and the percent form I DNA remaining was calculated from densitometric scanning of the band corresponding to form I. Following incubation with FLM for 1 minute, only 6.5% form I DNA remained undegraded (lane 8). In contrast, 74% form I DNA remained intact following incubation with TLM S10b for 1 minute (lane 3) and 10 minutes incubation was required to cleave 95% of form I (lane 5).

C-10E^R cells [5] = experiment: MTT microculture growth inhibition assay, revertant C-10E^R cells; assay type: cell-based, human; conditions: for resistance index C-10E ®: ratio of IC50 for C-10E ® cells compared to the IC50 for A-253 cells; for IC50: revertant cells, exposed to drugs for 4 days, MTT, ± SEM
Protocol: as §1, §2

C-10E^R cells [6] = experiment: Cell-associated drug by fluorescent spectrophotometry, C-10E^R cells; assay type: cell-based, human; conditions: 100 μM FLM, 1 hour, 37° C., fluorometry
Protocol: (§5) Exponentially growing A-253, C-10E or C-10E^R cells were harvested and approximately 1.5×10^6 cells were incubated in 200 µl medium at 37° C. for 60 minutes in the presence or absence of 100 μM FLM. Drug incubation was terminated by washing the cells with 3×1 ml of ice-cold PBS, resuspending the cells in 1 ml of 50 mM bicarbonate buffer (pH=9.0) and lysing by sonication (4×5 sec). The cell lysate was centrifuged at 12,000 rpm (Eppendorf Microcentrifuge 5415 C) to remove cellular debris, and the supernatant was filtered through 0.2 μm SPIN-X centrifuge filter unit (Costar, Cambridge, Mass.). The cell-associated fluorescent was measured using a fluorescent spectrophotometer. Autofluorescent associated with cells in the absence of drug treatment was measured and subtracted from the fluorescent value of the drug-treated group.
(§6) To quantify the levels of cell-associated FLM in A253, C-1OE and C-10E^R cell lines, cells were incubated with 100 μM FLM for 1 hour at 37° C. and the cellular fluorescent of the three cell lines were measured by fluorometry.

C-10E cells [7] = experiment: Cell-associated drug by fluorescent spectrophotometry, C-10E cells; assay type: cell-based, human
Protocol: as §5, §6

A-253 cells [8] = experiment: Cell-associated drug by fluorescent spectrophotometry, A-253 cells; conditions: 1 hour, 37° C.
Protocol: as §5, §6

C-10E cells [9] = experiment: Flow cytometric analysis of cellular FLM content, C-10E cells; assay type: cell-based, human
Protocol: (§3) For each analysis, a "control" was included in which each cell line was incubated under identical conditions in the absence of FLM. […] Cells were then suspended in 100 μl PBS, fixed with 2% paraformaldehyde in 100 μl PBS and analyzed by flow cytometry using a Becton-Dickinson FAC Star. Analysis was done using a 2 W laser tuned in at 488 nm at an output strength of 200 mW. The band pass filter range =530/30. The total number of cells analyzed was 5,000.
(§4) The cell diameter as measured by Coulter counter was similar for all the three cell lines ([…]).

A-253 cells [10] = experiment: Flow cytometric analysis of cellular FLM content, A-253 cells; assay type: cell-based, human; conditions: 100 μM FLM, 60 minutes, 37° C.
Protocol: as §3, §4

C-10E^R cells [11] = experiment: Flow cytometric analysis of cellular FLM content, C-10E^R cells; assay type: cell-based, human
Protocol: as §3, §4

[12] = A-253 cells, continuous exposure

- relative fluorescent units [1]: 2.1 relative fluorescent units
- IC50 [2]: 500 ± 20 nM
Compound: Cc1c(N)nc([C@H](CC(N)=O)NC[C@H](N)C(N)=O)nc1C(=O)N[C@H](C(=O)N[C@H](C)[C@@H](O)[C@H](C)C(=O)N[C@H](C(=O)NCCc1nc(-c2nc(C(=O)NCCCN(C)CCCN(Cc3ccc(OCc4ccccc4)c(OCc4ccccc4)c3)Cc3ccc(OCc4ccccc4)c(OCc4ccccc4)c3)cs2)cs1)[C@@H](C)O)[C@@H](O[C@@H]1O[C@@H](CO)[C@@H](O)[C@H](O)[C@@H]1O[C@H]1O[C@H](CO)[C@@H](O)[C@H](OC(N)=O)[C@@H]1O)c1cnc[nH]1 [LBM, liblomycin, reference compound]
- IC50 (C-10E cells [3]): 570 ± 20 nM
- resistance index C-10E (C-10E cells [3]): 1.1

Compound: Cc1c(N)nc([C@H](CC(N)=O)NC[C@H](N)C(N)=O)nc1C(=O)N[C@H](C(=O)N[C@H](C)[C@@H](O)CC(=O)N[C@H](C(=O)NC(O[C@@H]1O[C@@H](C)[C@@H](N)[C@@H](O)[C@H]1O)C(O)c1nc(-c2nc(C(=O)NCCCCN)cs2)cs1)[C@@H](C)O)[C@@H](O[C@@H]1O[C@@H](CO)[C@@H](O)[C@H](O)[C@@H]1O[C@H]1O[C@H](CO)[C@@H](O)[C@H](OC(N)=O)[C@@H]1O)c1cnc[nH]1 (stereo partly drawn) [TLM S10b, talisomycin S10b, reference compound]
- relative fluorescent units [1]: 2.6 relative fluorescent units
- form I DNA remaining undegraded ([4]; 0.05 μM drug, 20 minutes, stoichiometric Fe(II)): 21.1%
- incubation required to cleave 95% of form I DNA ([4]; TLM S10b 0.05 μM): 10 min
- form I DNA remaining after 1 minute incubation [4]: 74%
- resistance index C-10E ® (C-10E^R cells [5]): 8
- IC50 (C-10E^R cells [5]): 410 ± 9 nM
- IC50 [2]: 50 ± 2.3 nM
- fold resistance of C-10E cells (C-10E cells [3]): 40- to 50 fold
- IC50 (C-10E cells [3]): 2700 ± 23 nM
- resistance index C-10E (C-10E cells [3]): 54

- relative fluorescent units [1]: 836 relative fluorescent units
- fluorescent quantum yield ([1]; 50 mM bicarbonate buffer (pH=9.0), excited at 497 nm, emission maximum 523 nm): 0.71
- fluorescent intensity times greater than that of BLM A2, TLM S10b and LBM ([1]; equimolar solutions): 300 to 400 times
- IC50 [2]: 1250 ± 80 nM
- IC50 value times higher than TLM S10b or BLM A2 ([2]; growth inhibition assay): 25-30 times
Compound: fluoromycin [FLM]
- cell-associated FLM (C-10E^R cells [6]): 167 pmol/10^6 cells
- cell-associated FLM (C-10E cells [7]; C-10E cells, 100 μM FLM, 1 hour, 37° C., fluorometry): 123 pmol/10^6 cells
- fold difference in cell-associated FLM, C-10E lower than A-253 cells (C-10E cells [7]; fluorescent spectrophotometry): 2 fold
- form I DNA remaining after 1 minute incubation [4]: 6.5%
- rate of DNA cleavage relative to TLM S10b ([4]; equipotent doses compared directly): approximately 10 times
- times less potent than TLM S10b in DNA cleavage ([4]; metal-free FLM, stoichiometric Fe(II), 20 minutes): 12 times
- cleavage of plasmid DNA in vitro ([4]; result in words): able to cleave form I DNA; also recorded: cleaves pGEM-3Z plasmid DNA in vitro in a concentration-dependent manner
- resistance index C-10E ® (C-10E^R cells [5]): 18
- IC50 (C-10E^R cells [5]): 22000 ± 1100 nM
- times less potent than BLM A2 (antiproliferative potency) [2, 12]: 33 times
- times less potent than TLM S10b (antiproliferative potency) [2, 12]: 25 times
- fold difference in drug accumulation, FLM vs BLM A2 (A-253 cells [8]; 50 μM): ~2 fold
- cell-associated FLM (A-253 cells [8]; 100 μM FLM, fluorometry): 246 pmol/106 cells
- cell-associated drug, comparison of BLM A2 and FLM (A-253 cells [8]; 100 μM drug): 255 pmol/10^6 cells
- cell-associated FLM fold higher than for BLM A2 (A-253 cells [8]; 100 μM): approximately 2.5 fold
- mean fluorescent channel number (mean FL1) (C-10E cells [9]; C-10E cells, 100 μM FLM, 60 minutes, 37° C.): 61
- fold difference in fluorescent intensity, C-10E lower than A-253 cells (C-10E cells [9]; flow cytometry of FLM content): 4 fold
- fold resistance of C-10E cells (C-10E cells [3]): 50 fold
- IC50 (C-10E cells [3]): 66000 ± 1700 nM
- resistance index C-10E (C-10E cells [3]): 53
- mean fluorescent channel number (mean FL1) (A-253 cells [10]): 250
- mean fluorescent channel number (mean FL1) (C-10E^R cells [11]; C-10E^R cells, 100 μM FLM, 60 minutes, 37° C.): 122
- fold lower fluorescent intensity, C-10E^R compared to A-253 cells (C-10E^R cells [11]; flow cytometry of FLM content): 2 fold

Source: US5420228A, “Fluorescent-labelled bleomycin analogues” (University of Pittsburgh of the Commonwealth System of …, priority 1994, dated 1995)
